Laboratory results from US7972780B2, “ITPase gene polymorphisms associated with adverse drug reactions to azathioprine therapy” (Guy's and St. Thomas' NHS Foundation Trust, priority 2004, dated 2011).
Like-named read-outs stand apart in the source and are kept apart here.

Columns and labels:
[1] = test system: Caucasian patients with IBD; conditions: for Odds ratio, All side effects: ADR n = 62 vs controls n = 68; for Odds ratio, Hepatotoxicity / Odds ratio, Other: n = 4 vs controls; for Odds ratio, Neutropenia: n = 11 vs controls; for Odds ratio, Flu-like symptoms: n = 16 vs controls
patients = conditions: Dubinsky et al. 2001; cited from earlier work
[2] = ITPA 94C>A, TPMT heterozygous genotypes excluded

## Cn1cnc([N+](=O)[O-])c1Sc1ncnc2nc[nH]c12 [azathioprine]
[1]; ITPA 94C > A variant genotype
  Odds ratio, All side effects: 4.2
[1]; ITPA 94C > A
  Odds ratio, Hepatotoxicity: 10.3
  Odds ratio, Other: 3.4
  Odds ratio, Neutropenia: 1.0
  Odds ratio, Flu-like symptoms: 4.7
[1]; ITPA 94C > A, n = 6 vs controls
  Odds ratio, Rash: 10.3
[1]; ITPA 94C > A, n = 8 vs controls
  Odds ratio, Pancreatitis: 6.2
[1]; ITPA 94C > A, n = 13 vs controls
  Odds ratio, Nausea and vomiting: 3.1
[1]; [2]
  Odds ratio, Nausea and vomiting: 6.2
  Odds ratio, Pancreatitis: 7.8
  Odds ratio, Rash: 15.5
[1]; ITPA 94C>A, TPMT heterozygous genotypes excluded from side-effect cohort
  Odds ratio, adverse drug reactions: 5.3
[1]; ITPA IVS2 + 21A > C variant genotype
  Odds ratio, All side effects: 0.7
[1]; ITPA IVS2 + 21A > C
  Odds ratio, Hepatotoxicity: 0.5
  Odds ratio, Other: 4.2
  Odds ratio, Neutropenia: 0.4
  Odds ratio, Flu-like symptoms: 1.0
[1]; ITPA IVS2 + 21A > C, n = 6 vs controls
  Odds ratio, Rash: 0.9
[1]; ITPA IVS2 + 21A > C, n = 8 vs controls
  Odds ratio, Pancreatitis: 0.6
[1]; ITPA IVS2 + 21A > C, n = 13 vs controls
  Odds ratio, Nausea and vomiting: 0.4
[1]; TPMT *3A + C variant genotype
  Odds ratio, All side effects: 1.7
[1]; TPMT *3A + C
  Odds ratio, Hepatotoxicity: 2.9
  Odds ratio, Neutropenia: 0.9
  Odds ratio, Flu-like symptoms: 0.3
[1]; TPMT *3A + C, n = 6 vs controls
  Odds ratio, Rash: 4.4
[1]; TPMT *3A + C, n = 8 vs controls
  Odds ratio, Pancreatitis: 1.3
[1]; TPMT *3A + C, n = 13 vs controls
  Odds ratio, Nausea and vomiting: 5.5
[1]; TPMT and ITPA 94C>A genotypes combined
  Odds ratio, risk of experiencing an adverse drug reaction: 3.5
[1]; of the 4 re-challenged patients heterozygous for a variant TPMT allele
  patients remaining intolerant on re-challenge with reduced dose: two patients remained intolerant
[1]; of the 62 patients suffering adverse drug reactions
  patients in whom therapy could be continued at full dose: 5
[1]; patients with ITPA 94C>A alleles
  patients who tolerated a reduced dose: 3 of 6
IBD patients; ITPA 94C>A, 6 patients
  Odds ratio, Rash: 10.833
IBD patients; ITPA 94C>A, 11 patients
  Odds ratio, flu-like symptoms: 6.190
IBD patients; ITPA 94C>A, 64 ADR patients vs 71 without side-effects, dominant model
  Odds ratio, adverse drug reactions to AZA therapy: 4.239
IBD patients; variant TPMT genotypes, subset of 14 patients
  Odds ratio, Nausea and vomiting: 5.079

## Nc1nc2nc[nH]c2c(=S)[nH]1 [thioguanine, 6-thioguanine]
patients
  use in patients with 6-MP/AZA-related toxicity: used successfully
